In paper PMC10082216 (Nature Communications, 2023):
Several values for one entry are separate records, joined by “and”; a condition that tells them apart may be missing. Identical values can stand only once. Entries after “also recorded” stand apart in the source; their conditions may differ.

How the values were obtained:
[1] = system: stage V gametocytes of P. falciparum (3D7 pULG8-GFP strain); experiment: Post-screening validation with 96-well plate microsphiltration (Paris); type: cell-based, Plasmodium falciparum; settings: for confirmation of stiffening activity upon post-screening: DRA, 3D7, Paris laboratory; for retention 24 h after drug washout: 24 h exposure, remeasured additional 24 h after washout; for Normalized retention rate: gametocytes exposed 24 h
Method: Plasmodium falciparum NF54 strain parasites (used for screening campaign) were cultured at 4% hematocrit in RBCs from informed blood donors (blood group A) as previously described. Parasites were taken from the -80 °C freezer, then rapidly melt for 1 minute in a 37 °C water bath. A saline solution was gently added to avoid the lysis. Firstly, NaCl dissolved at 12% in distilled water (1/5 of the volume measured in the cryovial) and then NaCl dissolved at 1.6% (9 times the cryovial’s volume). After that, fresh RBCs were added to allow parasites re-growth. Infected RBCs were kept in RPMI medium (Sigma-Aldrich, cat. no. R4130), supplemented with 10% of decomplemented human serum, hypoxanthine 50 mg/l (Sigma-Aldrich, cat. no. H9636). Biobank of Castilla y Leon and Centro de Transfusiones de Madrid as providers of human red blood cell concentrates. The production of gametocytes was induced from a 0.5% ring-stage parasitemia (day 0). Medium was changed daily to induce gametocytes differentiation, as previously described. At day 17, gametocytes were concentrated using a density gradient medium (NycoPrep 1.077, Progen cat. no. 1114550)[27]. Parasitemia was adjusted by FACS (SYBR-Green and MitoTracker double staining, 3–5% targeted). Hematocrit was adjusted to 0.5% by adding fresh RBCs and controlled by manual counting in a Neubauer chamber (Celeromics, cat. no. 717810). Finally, the gametocyte suspension was poured (45 μL/well) into the compound-containing 384-well microplate, then incubated 24 hours both for the screening campaign and the dose-response analysis. Both asexual and sexual stages were cultivated in RPMI 1640 supplemented with 25 mM HEPES, 50 mg/L hypoxanthine, 50 μg/mL gentami-cin, 10% pooled heat-inactivated human serum (A^+). Each batch of serum was obtained by pooling 10 serum bags from different donors. Serum was kept at −20 °C and thawed in a warmed water bath before use. A new serum batch was prepared when the previous was completed. For dose-response analysis and microfluidics, both the 3D7-pULG8-GFP[67] and the NF54 strain (BEI Resources, cat. no. MRA-1000) were tested. The 3D7 strain was cultivated as described above with the addition of 0.2% NaHCO3 and 2.5 nM of WR99210 for both asexual and sexual stages.
Both fixed-dose and dose-response analyses were performed according to a second protocol (Paris laboratory) to validate the selected hits from primary screening. Briefly, the gametocyte suspension was loaded into a 96-well empty plate (200 µL/well). For each dose-response, first, well volume was doubled and compound was added to obtain 10 µM final concentration. For the dose-response analysis, the gametocyte suspension was then manually serially diluted 1/2 for 12 points, obtaining 5 nM as the lower concentration. The same operation was done with DMSO to have a negative control. After 24 hours of incubation at 37 °C, gametocyte suspensions were loaded into a 96-well filtration plate[28] and microsphiltration was manually performed at 37 °C. Up and downstream samples were incubated for 30 min with Hoechst 33342 nuclear staining (1/1000 diluted in PBS, Thermo Fischer cat. no. H3570), washed, resuspended in 200 µL of PBS and then loaded into an empty 96-well plate before FACSCanto (BD Biosciences, Franklin Lakes, New Jersey, USA) quantification. Data from cytofluorimetry were analyzed with FlowJo V12. As per previously described experiences with this technique, to avoid the risk of microbead layers saturation, a microsphiltration experiment was repeated when the upstream gametocytemia exceeded 10%[25],[69].

[2] = Hit scoring on safety in human subjects and pharmacokinetics; settings: for Score (PK): peak plasma concentration vs IC50
Description: Hits from the ReFrame library were further selected based on safety, preferably oral administration (high score if oral), and potential availability for widespread use.

COc1cc2c(cc1OC)[C@@H]1Cc3ccc(OC)c(OC)c3CN1CC2 [(S)-(-)-Tetrahydropalmatine]
confirmation of stiffening activity upon post-screening ([1]; listed as L-THP): not fully confirmed; also recorded: did not confirm
Score (safety) [2]: 3
Score (PK) [2]: 6 (Peak plasma concentration higher than 3 IC50 (Score = 6))

C[C@H]1Cc2c([nH]c3cc(Cl)c(F)cc23)[C@@]2(N1)C(=O)Nc1ccc(Cl)cc12 [NITD609, cipargamin]
retention 24 h after drug washout [1]: 23%
confirmation of stiffening activity upon post-screening [1]: confirmed
Normalized retention rate [1]: 66%
Retention rates (single wells, Figure 4b) ([1]; gametocytes exposed to drugs 24 h): 36.4701 and 62.0956 and 72.239
Score (safety) [2]: 3
Score (PK) [2]: 6 (Peak plasma concentration higher than 3 IC50 (Score = 6))

CNC(=O)N1C[C@@H](C)N(c2ccc(C(=O)Nc3ccc(-c4ccc(-c5c[nH]c([C@@H]6CCCN6C(=O)[C@@H](NC(=O)OC)C(C)C)n5)cc4)c(OC(F)(F)F)c3)cn2)C[C@@H]1C [TD-6450]
retention 24 h after drug washout [1]: 43%
confirmation of stiffening activity upon post-screening [1]: confirmed
IC50 ([1]; Plasmodium falciparum, 3D7, 96-well, five independent experiments, read-out: stiffening IC50, median (±SD)): 280 ± 580 nM
Normalized retention rate [1]: 27%
persistence of stiffening activity after drug washout ([1]; mature gametocytes): ≥ 24 h
Score (safety) [2]: 3
Score (PK) [2]: 3 (Peak plasma concentration between IC50 and 3 IC50 (Score = 3))
